Experimental data reported in BindingDB's records for patent US20250368647 (Glaxosmithkline Intellectual Property Development, 2025).

target: Sodium channel protein type 10 subunit alpha (Homo sapiens, UniProt Q9Y5Y9); assay: Pharmacological Assay
Excerpt: Utilizing the voltage-clamp mode in the QPatch 48 HTX system a half inactivation state voltage protocol (V1/2) was used to determine pharmacological activity of compounds of the invention at Nav1.8 ion channels. A V1/2 protocol was utilized with the following voltage steps: a holding voltage of −100 mV was established followed by a 20 ms voltage step to 0 mV (P1), followed by an inactivating voltage step at −46 mV for 8 seconds, followed by a step to −100 mV for 20 ms, before a 20 ms step to 0 mV (P2), then returned to the holding voltage of −100 mV. This voltage protocol was repeated at a frequency of every 15 seconds, the current magnitude was quantified at the P2 step throughout the recording. Inhibition of the measured current amplitude with compounds of the invention was analyzed by fitting a 4-6 points dose-response curve allowing determination of the fifty percent inhibition concentration (IC50). P2 currents were normalized according to measurements made at baseline (Baseline, vehicle only), after compound (Input, at each test concentration), and after positive reference compound (FullResponse, to achieve complete block), fit to the following equation:n.ICPD=NormalizedCurrent=(Input-Baseline)(FullResponse-Baseline)[1570]To assess current run-down over the course of the experiment vehicle-only wells were utilized and the normalized current with vehicle-only (n.IVEH) was determined. To correct the compound response for run-down, the currents were corrected according to the following formula:n.IRD_Correct=(n.ICPD-n.IVEH)(1-n.IVEH)

Sequence of Sodium channel protein type 10 subunit alpha (Q9Y5Y9 whole entry): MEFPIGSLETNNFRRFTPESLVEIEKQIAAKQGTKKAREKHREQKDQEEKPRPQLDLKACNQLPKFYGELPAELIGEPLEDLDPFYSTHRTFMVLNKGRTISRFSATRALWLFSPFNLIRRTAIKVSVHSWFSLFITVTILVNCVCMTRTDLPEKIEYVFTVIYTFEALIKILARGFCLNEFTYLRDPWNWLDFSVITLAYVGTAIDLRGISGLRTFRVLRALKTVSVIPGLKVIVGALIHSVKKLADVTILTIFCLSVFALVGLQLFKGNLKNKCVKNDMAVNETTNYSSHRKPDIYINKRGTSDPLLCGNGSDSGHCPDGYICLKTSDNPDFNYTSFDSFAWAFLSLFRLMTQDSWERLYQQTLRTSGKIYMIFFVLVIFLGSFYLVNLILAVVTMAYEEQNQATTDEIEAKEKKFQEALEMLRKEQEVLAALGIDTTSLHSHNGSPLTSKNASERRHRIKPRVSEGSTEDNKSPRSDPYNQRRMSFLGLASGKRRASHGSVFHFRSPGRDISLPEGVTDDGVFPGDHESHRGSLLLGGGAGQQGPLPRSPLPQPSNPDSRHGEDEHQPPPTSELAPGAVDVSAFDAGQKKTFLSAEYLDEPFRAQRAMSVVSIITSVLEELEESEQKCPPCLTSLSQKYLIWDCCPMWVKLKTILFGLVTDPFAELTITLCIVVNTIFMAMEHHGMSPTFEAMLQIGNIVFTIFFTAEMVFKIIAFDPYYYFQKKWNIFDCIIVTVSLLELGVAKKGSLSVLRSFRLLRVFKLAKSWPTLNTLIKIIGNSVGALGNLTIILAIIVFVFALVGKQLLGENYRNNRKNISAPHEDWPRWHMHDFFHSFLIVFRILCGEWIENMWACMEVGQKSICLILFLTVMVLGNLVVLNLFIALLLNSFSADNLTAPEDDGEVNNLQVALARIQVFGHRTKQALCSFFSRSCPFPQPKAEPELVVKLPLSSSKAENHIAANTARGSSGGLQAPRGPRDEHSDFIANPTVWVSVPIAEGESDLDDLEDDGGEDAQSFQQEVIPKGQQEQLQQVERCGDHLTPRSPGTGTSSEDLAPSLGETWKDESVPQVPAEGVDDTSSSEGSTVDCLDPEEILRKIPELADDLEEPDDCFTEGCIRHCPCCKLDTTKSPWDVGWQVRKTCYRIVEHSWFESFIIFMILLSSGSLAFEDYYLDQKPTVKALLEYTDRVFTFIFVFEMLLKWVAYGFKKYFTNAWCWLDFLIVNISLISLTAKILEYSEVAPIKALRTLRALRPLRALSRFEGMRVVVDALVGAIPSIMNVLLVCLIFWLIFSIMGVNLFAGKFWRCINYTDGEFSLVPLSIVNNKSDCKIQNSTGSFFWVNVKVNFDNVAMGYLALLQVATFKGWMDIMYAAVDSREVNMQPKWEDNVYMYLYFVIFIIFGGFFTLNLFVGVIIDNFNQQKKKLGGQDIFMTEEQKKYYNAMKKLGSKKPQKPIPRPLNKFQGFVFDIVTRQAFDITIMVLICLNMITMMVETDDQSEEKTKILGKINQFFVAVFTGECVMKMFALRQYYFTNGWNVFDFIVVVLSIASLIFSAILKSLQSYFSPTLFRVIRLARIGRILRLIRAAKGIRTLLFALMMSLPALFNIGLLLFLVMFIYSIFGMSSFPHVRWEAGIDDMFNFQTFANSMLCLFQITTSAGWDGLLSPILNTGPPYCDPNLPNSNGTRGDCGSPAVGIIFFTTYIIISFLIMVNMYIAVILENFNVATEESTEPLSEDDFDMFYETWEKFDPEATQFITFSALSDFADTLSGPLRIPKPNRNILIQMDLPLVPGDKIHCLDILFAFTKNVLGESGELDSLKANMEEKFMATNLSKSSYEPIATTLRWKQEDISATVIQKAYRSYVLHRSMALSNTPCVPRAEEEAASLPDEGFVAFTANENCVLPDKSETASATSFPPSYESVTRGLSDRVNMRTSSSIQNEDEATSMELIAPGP

**Q.** How did the IC50 turn out when `O=C1c2ccc(C(F)(F)F)cc2N2CN1c1ccc(=O)[nH]c1CCCCCOc1cc(F)ccc12` [US20250368647, Example 19] was run?
**A.** Its IC50 is 316 nM.

**Q.** Which IC50 does the source give for `O=C1c2cc(C(F)(F)F)ccc2N2CN1c1ccc(=O)[nH]c1CCNCc1cc(F)c(F)cc12` [US20250368647, Example 47] here?
**A.** The IC50 was 200 nM.

**Q.** `O=C1c2cc(F)c(C(F)(F)F)cc2N2CN1c1ccc(=O)[nH]c1CCNCc1cc(OC(F)(F)F)ccc12` [US20250368647, Example 51] was tested. Which IC50 did it give?
**A.** The IC50 was 10 nM.

**Q.** With `O=C1c2cc(F)c(C(F)(F)F)cc2N2CN1c1ccc(=O)[nH]c1CCNCc1c2ccc(OC(F)(F)F)c1F` [US20250368647, Example 52] as the compound, how does the IC50 read?
**A.** The IC50 was 3.16 nM.

**Q.** How did the IC50 turn out when `O=C1c2cc(OCC(F)(F)F)ccc2N2CN1c1ccc(=O)[nH]c1CCNCc1cc(F)ccc12` [US20250368647, Example 56] was run?
**A.** The IC50 was 1260 nM.

**Q.** With `CC1CCNc2[nH]c(=O)ccc2N2CN(c3cc(C(F)(F)F)c(F)cc3C2=O)c2ccc(F)c(F)c21` (stereo unspecified) [US20250368647, Example 131] as the compound, how does the IC50 read?
**A.** Its IC50 is 15.8 nM.
